{
  "source": "ChEMBL document CHEMBL3046626",
  "about": "“Antifungal chalcones and new caffeic acid esters from Zuccagnia punctata acting against soybean infecting fungi” (2004)",
  "assay_type_in_all_cases": "functional",
  "key": {"Fusarium graminearum [1]": {"tested_on": "Fusarium graminearum", "experiment": "microbe, parasite or virus in culture", "details": "isolate CE171"}, "Fusarium graminearum [2]": {"tested_on": "Fusarium graminearum", "experiment": "microbe, parasite or virus in culture", "details": "isolate CE170"}, "Diaporthe longicolla": {"tested_on": "Diaporthe longicolla", "experiment": "Antifungal activity against Diaporthe longicolla CE117 after 48 to 72 hr"}, "Fusarium equiseti": {"tested_on": "Fusarium equiseti", "experiment": "Antifungal activity against Fusarium equiseti (CE181) after 48 to 72 hr"}, "Colletotrichum truncatum": {"tested_on": "Colletotrichum truncatum", "experiment": "Antifungal activity against Colletotrichum truncatum CE175 after 48 to 72 hr"}, "Macrophomina phaseolina": {"tested_on": "Macrophomina phaseolina", "experiment": "Antifungal activity against Macrophomina phaseolina isolate CE173 after 48 to 72 hr"}, "Alternaria alternata": {"tested_on": "Alternaria alternata", "experiment": "Antifungal activity against Alternaria alternata (CE172) after 48 to 72 hr"}, "Fusarium graminearum [3]": {"tested_on": "Fusarium graminearum", "experiment": "microbe, parasite or virus in culture", "details": "isolate CE135"}, "Fusarium graminearum [4]": {"tested_on": "Fusarium graminearum", "experiment": "microbe, parasite or virus in culture", "details": "isolate CE169"}},
  "data": [
    {"smiles": "COC(=O)Nc1nc2ccccc2[nH]1", "note": "[CARBENDAZIM]", "values": [
      {"measurement": "MIC", "setting": "Fusarium graminearum [1]", "value": 0.4, "unit": "µg/mL"},
      {"measurement": "MIC", "setting": "Fusarium graminearum [2]", "value": 0.75, "unit": "µg/mL"},
      {"measurement": "MIC", "setting": "Diaporthe longicolla", "value": 0.01, "unit": "µg/mL"},
      {"measurement": "MIC", "setting": "Fusarium equiseti", "value": 0.75, "unit": "µg/mL"},
      {"measurement": "MIC", "setting": "Colletotrichum truncatum", "value": 0.01, "unit": "µg/mL"},
      {"measurement": "MIC", "setting": "Macrophomina phaseolina", "value": 0.25, "unit": "µg/mL"},
      {"measurement": "MIC", "setting": "Alternaria alternata", "value": 75, "unit": "µg/mL"},
      {"measurement": "MIC", "setting": "Fusarium graminearum [3]", "value": 0.75, "unit": "µg/mL"}
    ]},
    {"smiles": "COc1c(O)ccc(C(=O)/C=C/c2ccccc2)c1O", "note": "[LARREIN]", "values": [
      {"measurement": "MIC", "setting": "Fusarium graminearum [1]", "value": 12.5, "unit": "µg/mL"},
      {"measurement": "MIC", "setting": "Fusarium graminearum [4]", "value": 12.5, "unit": "µg/mL"},
      {"measurement": "MIC", "setting": "Fusarium graminearum [2]", "value": 25, "unit": "µg/mL"},
      {"measurement": "MIC", "setting": "Diaporthe longicolla", "value": 6.25, "unit": "µg/mL"},
      {"measurement": "MIC", "setting": "Fusarium equiseti", "value": 25, "unit": "µg/mL"},
      {"measurement": "MIC", "setting": "Colletotrichum truncatum", "value": 6.25, "unit": "µg/mL"},
      {"measurement": "MIC", "setting": "Macrophomina phaseolina", "value": 50, "unit": "µg/mL"},
      {"measurement": "MIC", "setting": "Alternaria alternata", "value": 25, "unit": "µg/mL"},
      {"measurement": "MIC", "setting": "Fusarium graminearum [3]", "value": 12.5, "unit": "µg/mL"}
    ]},
    {"smiles": "O=C(/C=C/c1ccccc1)c1ccc(O)cc1O", "note": "[2',4'-DIHYDROXYCHALCONE]", "values": [
      {"measurement": "MIC", "setting": "Fusarium graminearum [1]", "value": 25, "unit": "µg/mL"},
      {"measurement": "MIC", "setting": "Fusarium graminearum [4]", "value": 25, "unit": "µg/mL"},
      {"measurement": "MIC", "setting": "Fusarium graminearum [2]", "value": 25, "unit": "µg/mL"},
      {"measurement": "MIC", "setting": "Diaporthe longicolla", "value": 3.12, "unit": "µg/mL"},
      {"measurement": "MIC", "setting": "Fusarium equiseti", "value": 25, "unit": "µg/mL"},
      {"measurement": "MIC", "setting": "Colletotrichum truncatum", "value": 6.25, "unit": "µg/mL"},
      {"measurement": "MIC", "setting": "Macrophomina phaseolina", "value": 50, "unit": "µg/mL"},
      {"measurement": "MIC", "setting": "Alternaria alternata", "value": 25, "unit": "µg/mL"},
      {"measurement": "MIC", "setting": "Fusarium graminearum [3]", "value": 25, "unit": "µg/mL"}
    ]},
    {"smiles": "CC(CCc1ccc(O)c(O)c1)OC(=O)/C=C/c1ccc(O)c(O)c1", "note": "(stereo unspecified)", "values": [
      {"measurement": "MIC", "setting": "Fusarium graminearum [1]", "value": "> 50", "unit": "µg/mL"},
      {"measurement": "MIC", "setting": "Fusarium graminearum [4]", "value": "> 50", "unit": "µg/mL"},
      {"measurement": "MIC", "setting": "Fusarium graminearum [2]", "value": "> 50", "unit": "µg/mL"},
      {"measurement": "MIC", "setting": "Diaporthe longicolla", "value": "> 50", "unit": "µg/mL"},
      {"measurement": "MIC", "setting": "Fusarium equiseti", "value": "> 50", "unit": "µg/mL"},
      {"measurement": "MIC", "setting": "Colletotrichum truncatum", "value": "> 50", "unit": "µg/mL"},
      {"measurement": "MIC", "setting": "Macrophomina phaseolina", "value": "> 50", "unit": "µg/mL"},
      {"measurement": "MIC", "setting": "Alternaria alternata", "value": "> 50", "unit": "µg/mL"},
      {"measurement": "MIC", "setting": "Fusarium graminearum [3]", "value": "> 50", "unit": "µg/mL"}
    ]},
    {"smiles": "CC(=O)N1CCN(c2ccc(OCC3COC(Cn4ccnc4)(c4ccc(Cl)cc4Cl)O3)cc2)CC1", "note": "(stereo unspecified) [KETOCONAZOLE]", "values": [
      {"measurement": "MIC", "setting": "Fusarium graminearum [1]", "value": 40, "unit": "µg/mL"},
      {"measurement": "MIC", "setting": "Fusarium graminearum [4]", "value": 40, "unit": "µg/mL"},
      {"measurement": "MIC", "setting": "Fusarium graminearum [2]", "value": 40, "unit": "µg/mL"},
      {"measurement": "MIC", "setting": "Diaporthe longicolla", "value": 0.5, "unit": "µg/mL"},
      {"measurement": "MIC", "setting": "Fusarium equiseti", "value": 50, "unit": "µg/mL"},
      {"measurement": "MIC", "setting": "Colletotrichum truncatum", "value": 1.5, "unit": "µg/mL"},
      {"measurement": "MIC", "setting": "Macrophomina phaseolina", "value": 50, "unit": "µg/mL"},
      {"measurement": "MIC", "setting": "Alternaria alternata", "value": 5, "unit": "µg/mL"},
      {"measurement": "MIC", "setting": "Fusarium graminearum [3]", "value": 40, "unit": "µg/mL"}
    ]},
    {"smiles": "COC(=O)N(OC)c1ccccc1COc1ccn(-c2ccc(Cl)cc2)n1", "note": "[PYRACLOSTROBIN]", "values": [
      {"measurement": "MIC", "setting": "Fusarium graminearum [1]", "value": 0.05, "unit": "µg/mL"},
      {"measurement": "MIC", "setting": "Fusarium graminearum [4]", "value": 20, "unit": "µg/mL"},
      {"measurement": "MIC", "setting": "Fusarium graminearum [2]", "value": 0.05, "unit": "µg/mL"},
      {"measurement": "MIC", "setting": "Diaporthe longicolla", "value": 0.01, "unit": "µg/mL"},
      {"measurement": "MIC", "setting": "Fusarium equiseti", "value": 12.5, "unit": "µg/mL"},
      {"measurement": "MIC", "setting": "Colletotrichum truncatum", "value": 0.04, "unit": "µg/mL"},
      {"measurement": "MIC", "setting": "Macrophomina phaseolina", "value": 2.5, "unit": "µg/mL"},
      {"measurement": "MIC", "setting": "Alternaria alternata", "value": 0.4, "unit": "µg/mL"},
      {"measurement": "MIC", "setting": "Fusarium graminearum [3]", "value": 1, "unit": "µg/mL"}
    ]},
    {"smiles": "CO/C=C(/C(=O)OC)c1ccccc1Oc1cc(Oc2ccccc2C#N)ncn1", "note": "[AZOXYSTROBIN]", "values": [
      {"measurement": "MIC", "setting": "Fusarium graminearum [1]", "value": 0.4, "unit": "µg/mL"},
      {"measurement": "MIC", "setting": "Fusarium graminearum [4]", "value": 7.5, "unit": "µg/mL"},
      {"measurement": "MIC", "setting": "Fusarium graminearum [2]", "value": 0.25, "unit": "µg/mL"},
      {"measurement": "MIC", "setting": "Diaporthe longicolla", "value": 0.05, "unit": "µg/mL"},
      {"measurement": "MIC", "setting": "Fusarium equiseti", "value": 12.5, "unit": "µg/mL"},
      {"measurement": "MIC", "setting": "Colletotrichum truncatum", "value": 0.05, "unit": "µg/mL"},
      {"measurement": "MIC", "setting": "Macrophomina phaseolina", "value": 2.5, "unit": "µg/mL"},
      {"measurement": "MIC", "setting": "Alternaria alternata", "value": 2.5, "unit": "µg/mL"},
      {"measurement": "MIC", "setting": "Fusarium graminearum [3]", "value": 5, "unit": "µg/mL"}
    ]},
    {"smiles": "CC(CCc1ccc(O)cc1)OC(=O)/C=C/c1ccc(O)c(O)c1", "note": "(stereo unspecified)", "values": [
      {"measurement": "MIC", "setting": "Fusarium graminearum [1]", "value": "> 50", "unit": "µg/mL"},
      {"measurement": "MIC", "setting": "Fusarium graminearum [4]", "value": "> 50", "unit": "µg/mL"},
      {"measurement": "MIC", "setting": "Fusarium graminearum [2]", "value": "> 50", "unit": "µg/mL"},
      {"measurement": "MIC", "setting": "Diaporthe longicolla", "value": 6.25, "unit": "µg/mL"},
      {"measurement": "MIC", "setting": "Fusarium equiseti", "value": "> 50", "unit": "µg/mL"},
      {"measurement": "MIC", "setting": "Colletotrichum truncatum", "value": "> 50", "unit": "µg/mL"},
      {"measurement": "MIC", "setting": "Macrophomina phaseolina", "value": "> 50", "unit": "µg/mL"},
      {"measurement": "MIC", "setting": "Alternaria alternata", "value": "> 50", "unit": "µg/mL"},
      {"measurement": "MIC", "setting": "Fusarium graminearum [3]", "value": "> 50", "unit": "µg/mL"}
    ]}
  ]
}
